Reference: paper PMC9120013, “Ribosome inhibition by C9ORF72-ALS/FTD-associated poly-PR and poly-GR proteins revealed by cryo-EM” (Nature Communications, 2022)
Where two headings read alike, the source gives them in different places. Ends that are not written are not given here.

Experiments:
[1] = test system: ribosomes on endogenous beta-globin mRNA in RRL; assay: Toeprinting of 80S and 4-5-mer polysome fractions on beta-globin mRNA; assay type: biochemical, rabbit; conditions: for Ratio (START to CDS) / Normalized ratio START/ORF: 80S fraction, primer A, Fig. 2f independent repeat; for Normalized ratio START/ORF: no inhibitor = 1; for normalized ratio START to CDS, MEAN: 4-5-mer, primer B, mean of ten 20 bp windows
Protocol: Toeprinting analyses were carried out similarly to those in refs. [51],[74], using 80S and polysome (4–5-some) fractions collected from polysome profiles as described in “Polysome Profiles” except that reactions were doubled in size (200 μL), performed at 37 °C, and were stopped with ice-cold 1xAMV Buffer (50 mM Tris-HCl pH 8.3, 50 mM KCl, 5 mM MgCl2) with 200 μg/ml cycloheximide before being separated on at 10–35% sucrose gradient in 1xAMV buffer with 0.5 mM spermidine and 1 mM DTT. 600 μl of each fraction (80S or 4–5-mer) was supplemented with 10 mM DTT. Then 10 U of AMV reverse transcriptase (Promega), 120 nmol dNTPs, and 120 pmol of a 5'[6-carboxyfluorescein (FAM)]-labeled primer (IDT-DNA) were added. Two primers specific to the endogenous beta-globin mRNA in RRL were used in separate reactions: 5′-(FAM)-GGACTCGAAGAACCTCTG (as in ref. [74]) annealed 136 nucleotides downstream of the AUG or 5′-(FAM)-[…] annealed to the end of the 3'-UTR. Primers were extended at 37 °C for 30 min, and then the reaction were extracted in 1:1 phenol:chloroform, supplemented with 1/10 volume of 3 M sodium acetate pH 5.2, and precipitated with 2.5 volumes of 100% ethanol. Pellets were resuspended in 10 μl of deionized formamide (Applied Biosystems) with 1/20 volume of a 35-500 nucleotide orange-dye labeled DNA size standard (MCLab) and loaded onto a 96-well plate. The samples were sent for fragment analysis by capillary electrophoresis to the UMass Chan Medical School Molecular Biology Core Laboratory using an ABI3730XL DNA Fragment Analyzer with capillaries loaded with POP-7 polymer and with an injection voltage of 12.5 kV. Data collection was performed with GeneMapper software (ABI). Data were exported as.fsa files and were analyzed (aligning to ladder and background correction) in GeneMarker 3.0.1 software (SoftGenetics) running in demo mode. Screen captures of traces were taken and traces were integrated using the “Quantification” feature and manually adjusting sliders to include the desired nucleotide range.

[2] = target: translation of nanoluciferase mRNA in rabbit reticulocyte lysates; assay: Nanoluciferase mRNA translation in rabbit reticulocyte lysate, inhibitor preincubated 5 min before mRNA; assay type: biochemical; conditions: for IC50: same extracts as the DPR assay, read-out: IC50 in RRL extracts, range stated in the response to reviewers
Text: Rabbit reticulocyte lysates (RRL, Promega) were used to investigate the inhibition of translation by DPR proteins. We independently monitored translation of two mRNAs encoding non-homologous proteins of different lengths: nanoluciferase[71] and firefly luciferase. To measure the IC50s of the translational inhibitors cycloheximide (Akros Organics), harringtonine (AbCam), GDPCP (Jena Biosciences), PR20 and GR20, we monitored the translation of nanoluciferase mRNA in nuclease-treated RRL (Promega). […] Next, 10 ng/μl (final concentration) 6xhis-Nanoluciferase mRNA flanked with the 5'- and 3'-UTR from rabbit beta-globin[48] was added and the luminescence reactions were continuously measured by an Infinite m1000 pro microplate reader (Tecan) for 15 min at 30 °C. The 1st derivative of the luminescence reactions was determined in Prism 8 (GraphPad Software, LLC) and the maximum was identified and the mean of three maximums from independent experiments for each inhibitor was taken as the rate. The rates were plotted versus inhibitors concentration, and the plots were fitted in Prism 8 (GraphPad Software, LLC) to a 3-parameter inhibition model (Y = baseline + (max-baseline)/(1 + X/IC50)) to obtain the IC50 values where the baseline was constrained to 0. This procedure was modified to separate translation initiation from translation elongation by changing the time of addition of the inhibitors to ~300 s after mRNA addition when RLUs had reached a value of ~50,000. Here, the maximum of the first derivative was taken in the 2nd or later measurement taken after inhibitor addition.
The following additional controls indicate that DPR-induced changes in fluorescence were caused by translation inhibition.

rabbit 80S ribosomes = assay: Kinetic peptidyl transfer (puromycin) assay on rabbit 80S ribosomes; assay type: biochemical
Text: To test the effects of PR20 on the mammalian peptidyl transferase, 80S ribosomes were purified from rabbit reticulocyte lysate (Green Hectares) and dissociated into 40S and 60S subunits as described in the section entitled “Cryo-EM complex of mammalian 80S ribosome with PR20”. A model leaderless mRNA fragment placing the AUG codon in the P-site and the UUC codon in the A site (CCAC AUG UUC CCCCCCCCCCCCCCCCCC), was synthesized by IDT. The 80S•mRNA•fMet-tRNA^fMet complex with PRn (where n = 10, 20, or 40) or GR20 was assembled as follows. one micrometer 60S subunit was mixed with the DPR (starting with the initial DPR concentration of 33x relative to its final concentration in the reaction) in Assembly Buffer containing 20 mM Tris-acetate (pH 7.0), 100 mM KOAc, 10 mM Mg(OAc)2, and the mixture was incubated for 5 min at 30 °C. […] 1095 nM [^35S]-fMet-tRNA^fMet and the 60S solution were added (0.5 volumes of the 40S solution), resulting in the following concentrations: 330 nM 60S, 400 nM 40S, 730 nM tRNA, 11 µM mRNA and 11x of final concentration of a DPR in the buffer (20 mM Tris-acetate (pH 7.0), 100 mM KOAc, 10 mM Mg(OAc)2). The solution was incubated for 5 min at 30 °C. The solution was diluted ten times with the same buffer, then puromycin (prepared in the same buffer) was added and time progress curves were recorded.
(§1) The kinetics of puromycin reaction on the 70S or 80S ribosomes were recorded and analyzed essentially as described. An aliquot (4.5 μl) of the complex prior to addition of puromycin was quenched in 30 μl of saturated MgSO4 in 0.1 M NaOAc to represent the zero-time point. Five microliters of 500 µM puromycin (in the same buffer as that used for the ribosomal complex) was added to 45 μl of the complex to initiate the reaction, yielding estimated final concentrations: 30 nM for the ribosome, 1 µM mRNA, 66 nM [^35S]-fMet-tRNA^fMet, 50 µM puromycin, and varying concentrations of PRn and GRn peptides, from 30 nM to 2 μM. After 6, 15, 30, 90 s, and 5, 15, 30, 60, and (for slower reactions) 180 min, 5-μl aliquots were quenched in 30 μl of saturated MgSO4 in 0.1 M NaOAc. All quenched samples were extracted with 700 μl ethyl-acetate. 600 μl of the extract were mixed with 3.5 ml of Econo-Safe scintillation cocktail (RPI), and the amount of released [^35S]-labeled dipeptide was measured for each time point using a scintillation counter (Beckman Coulter, Inc.).
(§2) All time progress curves were recorded in duplicates, using independently prepared 70S or 80S complexes. Reaction rates were calculated using single-exponential or double-exponential (80S complexes) regressions for different concentrations of PRn and GRn using GraphPad Prism 8. Hyperbola fitting in Gnuplot was used to derive apparent Ki-values.

E. coli 70S ribosomes = assay: Kinetic peptidyl transfer (puromycin) assay on E. coli 70S ribosomes; assay type: biochemical; conditions: for Ki: n = 2
Protocol: The effects of GRn or PRn on peptide bond formation in E. coli ribosome were tested in an in vitro assay that reacts the 70S ribosome loaded with [^35S]-fMet-tRNA^fMet in the P-site with puromycin, an A-site tRNA mimic, and measures the release of the resulting dipeptide containing formyl-methionine covalently bonded to puromycin, as described. E. coli tRNA^fMet (Chemical Block) was aminoacylated with [^35S]-N-formyl-L-methionine (Perkin Elmer) as described. 70S ribosomes were prepared from E. coli (MRE600) as described. 70S ribosomes were stored in the ribosome-storage buffer (20 mM Tris-HCl, pH 7.0; 100 mM NH4Cl; 20 mM MgCl2) at –80 °C. A model mRNA fragment, containing the Shine-Dalgarno sequence and a spacer to position the AUG codon in the P-site and the UUC codon in the A site (GGCAAGGAGGUAAAAAUGUUC AAAAAA), was synthesized by IDT. 70S•mRNA•fMet-tRNA^fMet complexes with GRn (where n = 4, 10 or 20) or PRn (where n = 4, 10, 20 or 40) were formed as follows. 330 nM 70S ribosomes were incubated with 11 µM mRNA in buffer containing 20 mM Tris-acetate (pH 7.0), 100 mM NH4OAc, 12 mM Mg(OAc)2, for 2 min at 37 °C. 730 nM [^35S]-fMet-tRNA^fMet was added and incubated for 5 min at 37 °C. The solution was diluted 9.6-fold with the same buffer, followed by addition of a GRn or PRn repeat peptide (22x relative to its final concentration). The complex was incubated for 5 min at 37 °C prior to addition of puromycin dissolved in the same buffer (see below).
as §1, §2

[3] = target: Escherichia coli 70S ribosome (E. coli)
[4] = target: Oryctolagus cuniculus (rabbit) 80S ribosome (rabbit (Oryctolagus cuniculus)) (UniProt G1SVW5)
[5] = 30 nM 70S, 50 µM puromycin, 37 °C, read-out: apparent inhibition constant (Ki) of peptidyl transfer

C[C@@H]1C[C@@H]([C@H](O)CC2CC(=O)NC(=O)C2)C(=O)[C@@H](C)C1 [Cycloheximide] was tested, and the “site of ribosome accumulation, toe-printing of polysome fractions” value [1] was “accumulate within the open reading frame”, the “Ratio (START to CDS)” value [1] was 3.435 and the “Normalized ratio START/ORF” value [1] was 1.274. For the same molecule, the “normalized ratio START to CDS, MEAN” value ([1]; Fig. 2g) was 0.5607, the “normalized ratio START to CDS, MEAN” value ([1]; Fig. 2h independent repeat) was 0.326 and the IC50 [2] was 10 to 500 nM.

With COC(=O)C[C@](O)(CCC(C)(C)O)C(=O)O[C@@H]1C(OC)=C[C@]23CCCN2CCc2cc4c(cc2[C@H]13)OCO4 [Harringtonine] the “site of ribosome accumulation, toe-printing of polysome fractions” value [1] was “accumulate at the start codon”, the “Ratio (START to CDS)” value [1] was 6.47 and the “Normalized ratio START/ORF” value [1] was 2.399. For the same molecule, the “normalized ratio START to CDS, MEAN” value ([1]; Fig. 2g) was 9.437, the “normalized ratio START to CDS, MEAN” value ([1]; Fig. 2h independent repeat) was 4.139 and the IC50 [2] was 10 to 500 nM.

In the case of N=C(N)NCCC[C@H](N)C(=O)O [L-arginine, reference compound], the “effect on peptidyl transfer on rabbit 80S” value (rabbit 80S ribosomes; 50 µM) is reported as “does not”, the “effect on peptidyl transfer on 70S” value (E. coli 70S ribosomes; 50 µM (Supplementary Fig. 2b)) is reported as “does not affect the peptidyl transfer reaction” and the “effect on nanoluciferase translation in RRL” value ([2]; 100 μM) is reported as “not inhibited”.

“GR20 (poly-glycine-arginine, 20 repeats) (peptide)” was tested, and the apparent inhibition constant (Ki) of peptidyl transfer from [35S]-fMet-tRNAfMet to puromycin on E. coli 70S ribosomes [3] was 164 nM, the IC50 of translation of nanoluciferase mRNA in 33% rabbit reticulocyte lysate [4] was 425 nM and the IC50 of translation of nanoluciferase mRNA in 50% rabbit reticulocyte lysate [4] was 640 nM.

In the case of GRGRGRGR [GR4], the Ki (E. coli 70S ribosomes; [5]) is reported as > 2000 nM and the “effect on peptidyl transfer on 70S” value (E. coli 70S ribosomes; 2 µM) is reported as “fail to inhibit peptidyl transfer”.

With PRPRPRPR [PR4] the Ki (E. coli 70S ribosomes; [5]) was > 2000 nM and the “effect on peptidyl transfer on 70S” value (E. coli 70S ribosomes; 2 µM) was “fail to inhibit peptidyl transfer”.

PRPRPRPRPRPRPRPRPRPR [PR10] was tested, and the “effect on peptidyl transfer on rabbit 80S” value (rabbit 80S ribosomes; 2 µM, n=2) was “no inhibition” and the Ki (E. coli 70S ribosomes; source data of Fig. 3b, unit printed in the legend b16 only, read-out: Ki, app of fMet-Pmn release from 70S) was 1050 nM.

GRGRGRGRGRGRGRGRGRGR [GR10 (poly-glycine-arginine, 10 repeats)] was tested, and the apparent inhibition constant (Ki) of peptidyl transfer to puromycin on E. coli 70S ribosomes [3] was 600 nM.

PRPRPRPRPRPRPRPRPRPR [PR10 (poly-proline-arginine, 10 repeats)] gave an apparent inhibition constant (Ki) of peptidyl transfer to puromycin on E. coli 70S ribosomes [3] of 1000 nM.

B1: PR40: poly-PR peptide of 40 repeats (peptide)
peptide: PRPRPRPRPRPRPRPRPRPRPRPRPRPRPRPRPRPRPRPRPRPRPRPRPRPRPRPRPRPRPRPRPRPRPRPRPRPRPRPR
In the case of B1, the Ki (rabbit 80S ribosomes; rabbit 80S) is reported as ≤ 30 nM and the Ki (E. coli 70S ribosomes; [5]) is reported as ≤ 30 nM.
